From US7718377B2, “Insulin resistance curative and method of screening the same” (Kyoto Pharmaceutical Industries, Ltd., priority 2003, dated 2010)

Columns and labels:
human PTP-1B (1-321) = biological target: T1, human PTP-1B (1-321) (Homo sapiens, UniProt P18031); assay: Determination of PTP-1B enzyme inhibitory activity (phosphopeptide substrate, malachite green); assay type: biochemical; conditions: each compound 100 μM; peptide substrate, 37° C., 10 min
T1 construct: ID No.2; made in house; host or cells: Escherichia coli BL21 DE3 (plasmid pET-hPTP1B (1-321), vector pET-11c)
T1 sequence (P18031 1-321): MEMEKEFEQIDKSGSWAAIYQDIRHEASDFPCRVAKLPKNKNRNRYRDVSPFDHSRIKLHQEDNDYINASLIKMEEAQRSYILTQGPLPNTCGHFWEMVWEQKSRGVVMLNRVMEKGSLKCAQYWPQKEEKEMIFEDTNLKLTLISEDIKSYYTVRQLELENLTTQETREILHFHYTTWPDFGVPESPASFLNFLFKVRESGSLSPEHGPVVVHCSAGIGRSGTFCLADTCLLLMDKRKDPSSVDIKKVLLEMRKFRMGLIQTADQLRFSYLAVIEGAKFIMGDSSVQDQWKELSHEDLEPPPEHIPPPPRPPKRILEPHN
Excerpt: As the substrates for PTP-1B enzyme reaction, synthetic peptides consisting of the following amino acid sequence: • Thr-Arg-Asp-Ile-Tyr (PO4)-Glu-Thr-Asp-Tyr (PO4)-Tyr (PO4)-Arg-Lys (SEQ; NO. 5), wherein 3 tyrosines had been all phosphorylated, were used (synthesis committed to Shimadzu Scientific Research Inc. (Chiyoda-ku, Tokyo)). [According to the amino acid numbers based on the report of Ullrich et al. (Nature, vol. 313, pages 756-761, 1985), this amino acid sequence corresponds to Nos. 1142-1153 of insulin receptor, and corresponds to Nos. 1169-1180 in the amino acid sequence of the insulin receptor precursor registered in Genbank No. X02160.]
This peptide substrate and a PTP-1B enzyme were reacted and the enzyme activity was determined by quantitation of inorganic phosphoric acid released from the substrate by the reaction. The decreased enzyme activity in the presence of a test compound during the enzyme reaction was taken as the enzyme inhibitory activity. Specifically, the following method was performed.
A peptide substrate (synthesis committed to Shimadzu Scientific Research Inc.) was dissolved in a buffer (20 mM imidazole (pH 7.0), 50 mM NaCl, 5 mM DTT and 2.5 mM EDTA) to 300 μM, and cryopreserved.
The PTP-1B solution obtained earlier was diluted with a buffer (20 mM imidazole (pH 7.0), 50 mM NaCl, 5 mM DTT, 2.5 mM EDTA, and 0.05% Nonidet P-40) to 200 ng/ml.
A 96 well microtiter plate [Costar 3695 (half area) Corning] was used and a buffer [39 μl, 20 mM imidazole (pH 7.0), 50 mM NaCl, 5 mM DTT, 2.5 mM EDTA], a PTP-1B enzyme solution (5 μl), and a solution (5 mM, 1 μl) of a test compound in dimethylsulfoxide (DMSO) were added to each well. As a control, solvent (DMSO, 1 μl) was added instead of the DMSO solution of test compound. After preincubation at 37° C. for about 10 min, a peptide substrate solution (300 μM, […]) was added and the mixture was incubated at 37° C. for 10 min.
For quantitation of released inorganic phosphoric acid, malachite green solution (90 μl, manufactured by BIOMOL Research Laboratories, Inc.) was added to each well, and the mixture was left standing at room temperature for about 10 min and the absorbance at 650 nm was measured with a microplate reader. Linearity was mostly observed between the absorbance and the phosphoric acid concentration generally within the absorbance range of from 0.05 to 0.6 (phosphoric acid from about […]) under these conditions.
The PTP-1B inhibitory activity of the test compound was obtained by the following calculation formula. Inhibitory activity (%)=[…]

[1] = biological target: T2, GAL4-PPARγ chimeric receptor (human PPARγ ligand binding site) (Homo sapiens, UniProt P37231); assay: Determination of PPARγ activation ability (GAL4-PPARγ luciferase reporter assay in HEK293 cells); assay type: cell-based; conditions: each compound 1 μM; amount of luminescence relative to control; value greater than 1 = activation ability
T2 construct: a GAL4-PPARγ chimeric receptor containing amino acid Nos. 1-147 of yeast transcription factor GAL4 on the amino terminal and Nos. 175-475; expressed in transfected cells; host or cells: HEK293 (plasmid pM-PPARγ co-transfected with reporter pFR-Luc)
Experimental: As a method for determining the ability of a compound to activate PPARγ (hereinafter PPARγ activation ability), a test by a reporter assay was performed with reference to the report of Kliewer et al. (Journal of Biological Chemistry, 1995, vol. 270(22), p. 12953-12956).
With reference to the report of Kliewer, a gene expressing a GAL4-PPARγ receptor, wherein human PPARγ ligand binding site (corresponding to about 300 amino acids on carboxy terminal) is bound with a DNA binding site (corresponding to 147 amino acids on amino terminal region) of yeast transcription factor GAL4, was prepared.
The plasmid pM-PPARγ obtained earlier, and plasmid pFR-Luc purchased from [sequence] CLONING SYSTEMS were each dissolved in desalted water to a concentration of 1 mg/1 ml.
A human fetal kidney-derived cell line HEK293 (American Type Culture Collection CRL-1573) was sown in a 75 cm^2 culture flask, and cultured in Dulbecco's Modified Eagle medium containing 10% fetal bovine serum (hereinafter a medium) under the conditions of 37° C., 5% CO2 until it reached nearly 80% confluent.
Using 7.5 μg of plasmid pM-PPARγ and 7.5 μg of plasmid pFR-Luc, both per flask, as well as a FuGENE6 transfection reagent (manufactured by Rosch Diagnostics) the plasmids were transfected to HEK293 cells and cultured overnight.
The next day, the cells were treated with trypsin and recovered. A 96 well plate coated with poly-L-lysine (IWAKI poly-L-lysine coated 96 well plate, manufactured by ASAHI TECHNOGLASS) was prepared, the cells were sown at about 50,000 cells/well, 90 μl, using the medium and cultured overnight.
The test compound was dissolved in DMSO at a concentration of 10 mM. This was diluted 1,000-fold with the medium, and 10 μl therefrom was added to the well in which cells were growing. The treatment concentration in the cell was 1 μM. After the addition, the cells were cultured overnight.
The next day, the medium was removed, and the cells were washed with phosphate buffered saline containing 1 mM magnesium and 1 mM calcium chloride. PicaGene LT FR manufactured by Wako Pure Chemical Industries, Ltd. was diluted 2-fold with the same saline and the solution was added to each well by 200 μl. After standing the mixture for about 1 hr, it was stirred and 180 μl thereof was taken from each well and placed in a white 96 well plate (OptiPlate 96, manufactured by Packard), applied to TopCount (manufactured by Packard) and the amount of luminescence of each well was measured for 6 seconds.
The PPARγ activation ability of the test compound was determined by the following calculation formula: PPARγ activation ability=(amount of luminescence [in the presence of each compound (1 μM)]}/[amount of luminescence (control)]

male Zucker Fatty rats = assay: Expression suppressive action on edema and the like: 2-week oral administration, insulin and blood cell parameters; assay type: in vivo, rat
Excerpt: For the test, male Zucker Fatty rats (6-week-old, Japan SLC) were used. During the acclimation period for 1 week and test period, feed (FR-2 (Funabashi Farm)) and water were freely given.
Blood was taken from the tail vain using a heparin-coated hematocrit tube and an EDTA-added hematocrit tube, and a part thereof was preserved as a whole blood and the rest was centrifuged and plasma was collected and subjected to the measurement of biochemical parameter (insulin). For insulin measurement, a rat Insulin RIA kit (US Linco) was used, and all the samples were collectively measured after the completion of administration. The whole blood sample was subjected to the measurement of blood cell parameters (erythrocyte concentration, hemoglobin concentration) using an automatic blood cell measurement apparatus (KX-21N, Sysmex Corporation).
At the beginning of the test, blood was taken from all the rats, and randomly grouped to make the parameters (body weight, erythrocyte, hemoglobin and the like) almost the same. […] The start of the administration was day 0, and the animals were fasted for about 16 hr from the evening of day 13. Blood was taken and measured for each parameter.

T2 sequence (P37231 with tags, fused parts or gaps): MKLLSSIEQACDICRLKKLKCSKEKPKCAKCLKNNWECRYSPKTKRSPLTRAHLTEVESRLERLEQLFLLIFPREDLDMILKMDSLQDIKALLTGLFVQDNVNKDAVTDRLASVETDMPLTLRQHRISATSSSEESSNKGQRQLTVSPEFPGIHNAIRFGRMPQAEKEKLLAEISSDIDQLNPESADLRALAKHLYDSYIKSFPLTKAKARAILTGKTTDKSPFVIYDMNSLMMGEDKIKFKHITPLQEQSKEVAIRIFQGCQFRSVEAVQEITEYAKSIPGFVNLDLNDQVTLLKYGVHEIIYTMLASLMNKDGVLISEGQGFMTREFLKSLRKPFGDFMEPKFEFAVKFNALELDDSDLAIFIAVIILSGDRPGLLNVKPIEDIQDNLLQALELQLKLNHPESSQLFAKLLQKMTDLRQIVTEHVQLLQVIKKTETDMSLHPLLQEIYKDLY

| Compound | inhibitory activity (%) (human PTP-1B (1-321)) | PPARγ activation ability [1] | also measured |
| --- | --- | --- | --- |
| CC(C)(C)N.CC=CC=CC(=O)N1Cc2cc(OCCc3nc(/C(C)=C/CCC)oc3C)ccc2C[C@H]1C(=O)O (stereo in doubt) [Reference Example 33, 2-(2,4-hexadienoyl)-7-{2-[5-methyl-2-(1-methyl-trans-1-penten-1-yl)oxazol-4-yl]ethoxy}-1,2,3,4-tetrahydroisoquinoline-(3S)-carboxylic acid tert-butylamine Salt] | 92% | 6.5 | – |
| CC(C)(C)N.CCCCC=CC(=O)N1Cc2cc(OCCc3nc(/C=C/CC(C)C)oc3C)ccc2C[C@H]1C(=O)O (stereo in doubt) [Reference Example 24, 2-(2-heptenoyl)-7-{2-[5-methyl-2-(4-methyl-trans-1-penten-1-yl)oxazol-4-yl]ethoxy}-1,2,3,4-tetrahydroisoquinoline-(3S)-carboxylic acid tert-butylamine Salt] | 92% | 9.4 | – |
| CC(C)(C)N.CC=CC=CC(=O)N1Cc2cc(OCCc3nc(/C=C/C4CCCCC4)oc3C)ccc2C[C@H]1C(=O)O (stereo in doubt) [Reference Example 40, 7-{2-[2-(trans-2-cyclohexylvinyl)-5-methyloxazol-4-yl]ethoxy}-2-(2,4-hexadienoyl)-1,2,3,4-tetrahydroisoquinoline-(3S)-carboxylic acid tert-butylamine Salt] | 90% | 5.4 | – |
| CC(C)(C)N.CC=CC=CC(=O)N1Cc2cc(OCCc3nc(/C=C/C4CCCC4)oc3C)ccc2C[C@H]1C(=O)O (stereo in doubt) [Reference Example 22, 7-{2-[2-(trans-2-cyclopentylvinyl)-5-methyloxazol-4-yl]ethoxy}-2-(2,4-hexadienoyl)-1,2,3,4-tetrahydroisoquinoline-(3S)-carboxylic acid tert-butylamine Salt] | 95% | 5.1 | – |
| CN(CCOc1ccc(CC2SC(=O)NC2=O)cc1)c1ccccn1 (stereo not drawn) [Rosiglitazone, reference compound] | – | – | inhibition at 100 µM (human PTP-1B (1-321)): < 10% |
| CC(C)(C)N.CC=CC=CC(=O)N1Cc2cc(OCCc3nc(/C=C/CCCC)oc3C)ccc2C[C@H]1C(=O)O (stereo in doubt) [Reference Example 27, 2-(2,4-hexadienoyl)-7-{2-[2-(trans-1-hexen-1-yl)-5-methyloxazol-4-yl]ethoxy}-1,2,3,4-tetrahydroisoquinoline-(3S)-carboxylic acid tert-butylamine Salt] | 88% | 5.9 | – |
| CC(C)(C)N.CC=CC=CC(=O)N1Cc2cc(OCCc3nc(/C=C/CCC(C)C)oc3C)ccc2C[C@H]1C(=O)O (stereo in doubt) [Reference Example 30, 2-(2,4-hexadienoyl)-7-{2-[5-methyl-2-(5-methyl-trans-1-hexen-1-yl)oxazol-4-yl]ethoxy}-1,2,3,4-tetrahydroisoquinoline-(3S)-carboxylic acid tert-butylamine Salt] | 96% | 6.2 | hemoglobin concentration (male Zucker Fatty rats; 30 mg/kg, po, once-daily, 2 consecutive weeks, FIG. 1): somewhat lower than those of the control group, but maintained at a remarkably high level as compared to the rosiglitazone administration group; insulin lowering action (blood insulin concentration) (male Zucker Fatty rats; 30 mg/kg, po, once-daily, 2 consecutive weeks, FIG. 2): equivalent to that of the rosiglitazone; erythrocyte concentration (male Zucker Fatty rats; 30 mg/kg, po, once-daily, 2 consecutive weeks, FIG. 3): somewhat lower than those of the control group, but maintained at a remarkably high level as compared to the rosiglitazone administration group; blood dilution (decrease in the concentrations of hemoglobin and erythrocyte) (male Zucker Fatty rats; compared with rosiglitazone administration group): markedly suppressed |
| CC(C)(C)N.CC=CC=CC(=O)N1Cc2cc(OCCc3coc(/C(C)=C/CCC)n3)ccc2C[C@H]1C(=O)O (stereo in doubt) [Reference Example 83, 2-(2,4-hexadienoyl)-7-{2-[2-(1-methyl-trans-1-penten-1-yl)oxazol-4-yl]ethoxy}-1,2,3,4-tetrahydroisoquinoline-(3S)-carboxylic Acid-tert-butylamine Salt] | 82% | 3.1 | – |
| CC(C)(C)N.CC=CC=CC(=O)N1Cc2cc(OCCc3nc(/C=C/CCCF)oc3C)ccc2C[C@H]1C(=O)O (stereo in doubt) [Reference Example 66, 7-{2-[2-(5-fluoro-trans-1-penten-1-yl)-5-methyloxazol-4-yl]ethoxy}-2-(2,4-hexadienoyl)-1,2,3,4-tetrahydroisoquinoline-(3S)-carboxylic Acid tert-butylamine Salt] | 80% | 3.0 | – |
